Results taken from the supplement of paper PMC10307832.

What was measured:
Assay in all cases: relative viability (nuclei count vs DMSO), 5 days (fraction); higher = more cells survive
[1] = compound: CC1CC(=O)N(C2=CN=C(N=C2N1C3CCCC3)NC4=C(C=C(C=C4)C(=O)NC5CCN(CC5)C)OC)C [NPK76-II-72-1] + CC(C)C[C@H](NC(=O)[C@H](Cc1ccccc1)NC(=O)c1cnccn1)B(O)O [Bortezomib] (partner 0.002 µM)
Summary of the method: (§1)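 Cells from lung cancer lines were seeded into 1536-well plates and, one day later, dosed by pin tool. Treatments were either a single drug or a fixed dose of an anchor drug with five library-drug doses (not always all listed) in √10 steps. After 5 days, nuclei were stained in a one-step fixation (final 0.05% Triton X-100, 1% formaldehyde, 1 ug/ml Hoechst) and counted on 4× images, and relative viability is the treated-to-vehicle nuclei ratio, as the median of duplicate plates.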

[2] = compound: CC[C@@H]1C(=O)N(C)c2cnc(Nc3ccc(C(=O)NC4CCN(C)CC4)cc3OC)nc2N1C1CCCC1 [BI-2536] + Cc1nc(Nc2ncc(C(=O)Nc3c(C)cccc3Cl)s2)cc(N2CCN(CCO)CC2)n1 [Dasatinib] (partner 0.075 µM)
Summary of the method: as §1

[3] = compound: CC1CC(=O)N(C2=CN=C(N=C2N1C3CCCC3)NC4=C(C=C(C=C4)C(=O)NC5CCN(CC5)C)OC)C [NPK76-II-72-1] + Nc1ncn([C@H]2C[C@H](O)[C@@H](CO)O2)c(=O)n1 [Decitabine] (partner 2 µM)
Summary of the method: as §1

[4] = compound: CC[C@@H]1C(=O)N(C)c2cnc(Nc3ccc(C(=O)NC4CCN(C)CC4)cc3OC)nc2N1C1CCCC1 [BI-2536] + CCNC(=O)c1noc(-c2cc(C(C)C)c(O)cc2O)c1-c1ccc(CN2CCOCC2)cc1 [Luminespib] (partner 0.01 µM)
Summary of the method: as §1

With NCI-H1299 the relative viability ([1]; first compound 0.01 µM) was 0.994, the relative viability ([1]; first compound 0.03162 µM) was 1.07 and the relative viability ([1]; first compound 0.1 µM) was 1.02. It also gave a relative viability ([1]; first compound 0.3162 µM) of 1.02 and a relative viability ([1]; first compound 1 µM) of 1.
NCI-H1395 gave a relative viability ([2]; first compound 0.01 µM) of 0.413, a relative viability ([2]; first compound 0.03162 µM) of 0.398 and a relative viability ([2]; first compound 0.1 µM) of 0.315. It also gave a relative viability ([2]; first compound 0.3162 µM) of 0.297, a relative viability ([2]; first compound 1 µM) of 0.328 and a relative viability ([3]; first compound 0.01 µM) of 0.758. The relative viability ([3]; first compound 0.03162 µM) was 0.619, the relative viability ([3]; first compound 0.1 µM) was 0.628 and the relative viability ([3]; first compound 0.3162 µM) was 0.693. For the same cell line, the relative viability ([3]; first compound 1 µM) was 0.753, the relative viability ([4]; first compound 0.01 µM) was 0.582 and the relative viability ([4]; first compound 0.03162 µM) was 0.605. The relative viability ([4]; first compound 0.1 µM) was 0.511, the relative viability ([4]; first compound 0.3162 µM) was 0.361 and the relative viability ([4]; first compound 1 µM) was 0.339.
Cell Line NCI-H1563 has a relative viability ([1]; first compound 0.01 µM) of 0.883, a relative viability ([1]; first compound 0.03162 µM) of 0.861 and a relative viability ([1]; first compound 0.1 µM) of 0.712. The relative viability ([1]; first compound 0.3162 µM) was 0.883, the relative viability ([1]; first compound 1 µM) was 0.879 and the relative viability ([2]; first compound 0.01 µM) was 0.47. For the same cell line, the relative viability ([2]; first compound 0.03162 µM) was 0.498, the relative viability ([2]; first compound 0.1 µM) was 0.449 and the relative viability ([2]; first compound 0.3162 µM) was 0.361. It also gave a relative viability ([2]; first compound 1 µM) of 0.331, a relative viability ([4]; first compound 0.01 µM) of 0.483 and a relative viability ([4]; first compound 0.03162 µM) of 0.547. The relative viability ([4]; first compound 0.1 µM) was 0.545, the relative viability ([4]; first compound 0.3162 µM) was 0.507 and the relative viability ([4]; first compound 1 µM) was 0.372.
Cell Line NCI-H1623 has a relative viability ([2]; first compound 0.01 µM) of 0.485, a relative viability ([2]; first compound 0.03162 µM) of 0.519 and a relative viability ([2]; first compound 0.1 µM) of 0.571. It also gave a relative viability ([2]; first compound 0.3162 µM) of 0.595, a relative viability ([2]; first compound 1 µM) of 0.281 and a relative viability ([4]; first compound 0.01 µM) of 0.402. For the same cell line, the relative viability ([4]; first compound 0.03162 µM) was 0.508, the relative viability ([4]; first compound 0.1 µM) was 0.374 and the relative viability ([4]; first compound 0.3162 µM) was 0.405. It also gave a relative viability ([4]; first compound 1 µM) of 0.388.
With NCI-H1648 the relative viability ([3]; first compound 0.01 µM) was 0.53, the relative viability ([3]; first compound 0.03162 µM) was 0.551 and the relative viability ([3]; first compound 0.1 µM) was 0.548. For the same cell line, the relative viability ([3]; first compound 0.3162 µM) was 0.476 and the relative viability ([3]; first compound 1 µM) was 0.519.
NCI-H1703 gave a relative viability ([1]; first compound 0.01 µM) of 0.255, a relative viability ([1]; first compound 0.03162 µM) of 0.316 and a relative viability ([1]; first compound 0.1 µM) of 0.323. It also gave a relative viability ([1]; first compound 0.3162 µM) of 0.318 and a relative viability ([1]; first compound 1 µM) of 0.348.
With NCI-H1793 the relative viability ([2]; first compound 0.01 µM) was 0.401, the relative viability ([2]; first compound 0.03162 µM) was 0.356 and the relative viability ([2]; first compound 0.1 µM) was 0.129. The relative viability ([2]; first compound 0.3162 µM) was 0.113, the relative viability ([2]; first compound 1 µM) was 0.163 and the relative viability ([3]; first compound 0.03162 µM) was 0.542. The relative viability ([3]; first compound 0.1 µM) was 0.547, the relative viability ([3]; first compound 0.3162 µM) was 0.409 and the relative viability ([3]; first compound 1 µM) was 0.575. The relative viability ([4]; first compound 0.01 µM) was 0.201, the relative viability ([4]; first compound 0.03162 µM) was 0.167 and the relative viability ([4]; first compound 0.1 µM) was 0.137. For the same cell line, the relative viability ([4]; first compound 0.3162 µM) was 0.168 and the relative viability ([4]; first compound 1 µM) was 0.14.
NCI-H1944 showed a relative viability ([2]; first compound 0.01 µM) of 0.218, a relative viability ([2]; first compound 0.03162 µM) of 0.232 and a relative viability ([2]; first compound 0.1 µM) of 0.177. The relative viability ([2]; first compound 0.3162 µM) was 0.126, the relative viability ([2]; first compound 1 µM) was 0.132 and the relative viability ([3]; first compound 0.01 µM) was 0.431. For the same cell line, the relative viability ([3]; first compound 0.03162 µM) was 0.463, the relative viability ([3]; first compound 0.1 µM) was 0.408 and the relative viability ([3]; first compound 0.3162 µM) was 0.408. For the same cell line, the relative viability ([3]; first compound 1 µM) was 0.478, the relative viability ([4]; first compound 0.01 µM) was 0.694 and the relative viability ([4]; first compound 0.03162 µM) was 0.794. It also gave a relative viability ([4]; first compound 0.1 µM) of 0.863, a relative viability ([4]; first compound 0.3162 µM) of 0.107 and a relative viability ([4]; first compound 1 µM) of 0.136.
Cell Line NCI-H2170 has a relative viability ([2]; first compound 0.01 µM) of 0.626, a relative viability ([2]; first compound 0.03162 µM) of 0.597 and a relative viability ([2]; first compound 0.1 µM) of 0.356. For the same cell line, the relative viability ([2]; first compound 0.3162 µM) was 0.16, the relative viability ([2]; first compound 1 µM) was 0.179 and the relative viability ([3]; first compound 0.01 µM) was 0.442. For the same cell line, the relative viability ([3]; first compound 0.03162 µM) was 0.447, the relative viability ([3]; first compound 0.1 µM) was 0.455 and the relative viability ([3]; first compound 0.3162 µM) was 0.42. It also gave a relative viability ([3]; first compound 1 µM) of 0.511, a relative viability ([4]; first compound 0.01 µM) of 0.624 and a relative viability ([4]; first compound 0.03162 µM) of 0.802. For the same cell line, the relative viability ([4]; first compound 0.1 µM) was 0.661, the relative viability ([4]; first compound 0.3162 µM) was 0.205 and the relative viability ([4]; first compound 1 µM) was 0.219.
Cell Line NCI-H2228 has a relative viability ([1]; first compound 0.01 µM) of 0.799, a relative viability ([1]; first compound 0.03162 µM) of 0.81 and a relative viability ([1]; first compound 0.1 µM) of 0.935. For the same cell line, the relative viability ([1]; first compound 0.3162 µM) was 0.942, the relative viability ([1]; first compound 1 µM) was 1.31 and the relative viability ([2]; first compound 0.01 µM) was 0.448. It also gave a relative viability ([2]; first compound 0.03162 µM) of 0.372, a relative viability ([2]; first compound 0.1 µM) of 0.116 and a relative viability ([2]; first compound 0.3162 µM) of 0.0877. The relative viability ([2]; first compound 1 µM) was 0.0886, the relative viability ([4]; first compound 0.01 µM) was 0.161 and the relative viability ([4]; first compound 0.03162 µM) was 0.179. The relative viability ([4]; first compound 0.1 µM) was 0.183, the relative viability ([4]; first compound 0.3162 µM) was 0.145 and the relative viability ([4]; first compound 1 µM) was 0.124.
Cell Line NCI-H2342 has a relative viability ([2]; first compound 0.01 µM) of 0.326, a relative viability ([2]; first compound 0.03162 µM) of 0.313 and a relative viability ([2]; first compound 0.1 µM) of 0.267. The relative viability ([2]; first compound 0.3162 µM) was 0.213, the relative viability ([2]; first compound 1 µM) was 0.227 and the relative viability ([3]; first compound 0.01 µM) was 0.686. It also gave a relative viability ([3]; first compound 0.03162 µM) of 0.694, a relative viability ([3]; first compound 0.1 µM) of 0.759 and a relative viability ([3]; first compound 0.3162 µM) of 0.668. For the same cell line, the relative viability ([3]; first compound 1 µM) was 0.78, the relative viability ([4]; first compound 0.01 µM) was 0.883 and the relative viability ([4]; first compound 0.03162 µM) was 0.661. For the same cell line, the relative viability ([4]; first compound 0.1 µM) was 0.676, the relative viability ([4]; first compound 0.3162 µM) was 0.38 and the relative viability ([4]; first compound 1 µM) was 0.369.
Work on SK-MES-1 yielded a relative viability ([2]; first compound 0.01 µM) of 0.415, a relative viability ([2]; first compound 0.03162 µM) of 0.336 and a relative viability ([2]; first compound 0.1 µM) of 0.134. The relative viability ([2]; first compound 0.3162 µM) was 0.115, the relative viability ([2]; first compound 1 µM) was 0.136 and the relative viability ([3]; first compound 0.01 µM) was 0.359. The relative viability ([3]; first compound 0.03162 µM) was 0.441, the relative viability ([3]; first compound 0.1 µM) was 0.434 and the relative viability ([3]; first compound 0.3162 µM) was 0.364. The relative viability ([3]; first compound 1 µM) was 0.455, the relative viability ([4]; first compound 0.01 µM) was 0.802 and the relative viability ([4]; first compound 0.03162 µM) was 0.698. The relative viability ([4]; first compound 0.1 µM) was 0.23, the relative viability ([4]; first compound 0.3162 µM) was 0.219 and the relative viability ([4]; first compound 1 µM) was 0.195.
For SW 900, the relative viability ([2]; first compound 0.01 µM) was 0.629, the relative viability ([2]; first compound 0.03162 µM) was 0.596 and the relative viability ([2]; first compound 0.1 µM) was 0.391. It also gave a relative viability ([2]; first compound 0.3162 µM) of 0.181, a relative viability ([2]; first compound 1 µM) of 0.139 and a relative viability ([3]; first compound 0.01 µM) of 0.425. For the same cell line, the relative viability ([3]; first compound 0.03162 µM) was 0.407, the relative viability ([3]; first compound 0.1 µM) was 0.429 and the relative viability ([3]; first compound 0.3162 µM) was 0.504. It also gave a relative viability ([3]; first compound 1 µM) of 0.467, a relative viability ([4]; first compound 0.01 µM) of 0.189 and a relative viability ([4]; first compound 0.03162 µM) of 0.186. The relative viability ([4]; first compound 0.1 µM) was 0.173, the relative viability ([4]; first compound 0.3162 µM) was 0.198 and the relative viability ([4]; first compound 1 µM) was 0.201.
